Measured values reported in patent US11660300B2, “Method of maintaining oral health in animals” (Boehringer Ingelheim Animal Health USA Inc., priority 2006, dated 2023).

How the values were obtained:
Assay type in all cases: in vivo
dental plaque = test: Presence of dental plaque (erythrosine staining) in beagle dogs given delmopinol dog snack; settings: for Number of sites with presence of dental plaque on the buccal surfaces: upper jaw (UJ), dogs 1-4 and Sum
Experimental: (§1) A study was carried out to investigate the effect of dog snacks containing delmopinol on gingivitis and calculus formation in beagle dogs. Eight female dogs were used in the study. […] During a pre-experimental period of four weeks, the teeth in the upper jaws of all dogs were scaled and polished professionally with a rubber cup, pumice and water, on a weekly basis. The teeth of the upper jaws were also thoroughly brushed with a toothbrush and water, for 2 minutes daily. The teeth in the lower jaws were not cleaned. During this pre-experimental period the dogs were fed a soft gingivitis-inducing diet. Using these procedures, two different clinical conditions prevailed in the dogs at the end of the pre-experimental period: in the upper jaw the gingiva was clinically healthy while in the lower jaws gingivitis prevailed. […] In the upper jaws, the presence of plaque and gingivitis was measured at the buccal surfaces of canines, first, second, third, fourth premolars and first molars. In the lower jaws the measurements were undertaken at the buccal surfaces of canines and first molars, in total […] were examined clinically. 12 surfaces were clinically healthy prior to the experimental period and 4 surfaces were not maintained with oral hygiene measures. All experimental procedures, (except the tooth brushing during the pre-experimental period) were performed with the dogs anaesthetized by intravenous Pentothal (Abbot, Belgium). […] The various measurements were taken on days 0, 14 and 28. Clinical photos were taken of the upper jaws at the same occasions as the measurements. The presence of plaque was scored following staining of the teeth with erythrosine dye. Plaque was noted if stained dental plaque was in contact with the buccal gingival margin.

gingivitis = test: Bleeding on probing (gingivitis) in beagle dogs given delmopinol dog snack; settings: for Number of sites with gingival bleeding at the buccal surfaces: dogs 1-4 and Sum
Experimental: as §1, with “Bleeding on probing” for “The presence of plaque”, “scored according to Löe, H and Silness, J (1963) Periodontal disease in pregnancy. Prevalence and severity. Acta Odontologica Scandinavia 21, 533-551. Presence of gingivitis was registered if bleeding occurred within 20 seconds” for “scored”, “gentle probing” for “staining”, “of” for “of the teeth with erythrosine dye. Plaque was noted if stained dental plaque was in contact with”

calculus formation = test: Calculus formation in beagle dogs given delmopinol dog snack; settings: for Number of teeth with calculus on the buccal surfaces of the teeth of the upper jaw: dogs 1-4 and Sum
Experimental: A study was carried out to investigate the effect of dog snacks containing delmopinol on gingivitis and calculus formation in beagle dogs. Eight female dogs were used in the study. […] During a pre-experimental period of four weeks, the teeth in the upper jaws of all dogs were scaled and polished professionally with a rubber cup, pumice and water, on a weekly basis. The teeth of the upper jaws were also thoroughly brushed with a toothbrush and water, for 2 minutes daily. The teeth in the lower jaws were not cleaned. During this pre-experimental period the dogs were fed a soft gingivitis-inducing diet. Using these procedures, two different clinical conditions prevailed in the dogs at the end of the pre-experimental period: in the upper jaw the gingiva was clinically healthy while in the lower jaws gingivitis prevailed. […] In the upper jaws, the presence of plaque and gingivitis was measured at the buccal surfaces of canines, first, second, third, fourth premolars and first molars. In the lower jaws the measurements were undertaken at the buccal surfaces of canines and first molars, in total […] were examined clinically. 12 surfaces were clinically healthy prior to the experimental period and 4 surfaces were not maintained with oral hygiene measures. All experimental procedures, (except the tooth brushing during the pre-experimental period) were performed with the dogs anaesthetized by intravenous Pentothal (Abbot, Belgium). […] The various measurements were taken on days 0, 14 and 28. Clinical photos were taken of the upper jaws at the same occasions as the measurements. Presence or absence of calculus was noted on the buccal surfaces of the teeth in the upper jaws.

Q: How did the “Number of sites with presence of dental plaque on the buccal surfaces” value (“Number of sites … on the buccal surfaces” for short) (dental plaque; Day 0 (baseline), n = 48 sites in sum) turn out when `CCCC(CCC)CCCC1COCCN1CCO` (stereo not drawn) [Delmopinol, 3-(4-propyl-heptyl)-4-(2-hydroxyethyl)morpholine] was run?
A: Its value is 0 sites.

Q: What about the “Number of sites … on the buccal surfaces” value (dental plaque; Day 0 (baseline), n = 48 sites in sum, listed as delmopinol) of the same compound?
A: The value was “plaque free”.

Q: What about the “reduction in the presence of dental plaque relative the control dogs” value (dental plaque; Day 14, upper jaw) of the same compound?
A: Its value is “around 20%”.

Q: And the “Number of sites … on the buccal surfaces” value (dental plaque; Day 28 (14 days after last snack), n = 48)?
A: The value was “all teeth”.

Q: What about the plaque accumulation (dental plaque; snacks with or without the tested component) of the same compound?
A: Its plaque accumulation is “did not alter”.

Q: And the “Number of sites with gingival bleeding at the buccal surfaces” value (shortened to “Number of sites with gingival bleeding”) (gingivitis; Day 0 (baseline), lower jaw (LJ), n = 16)?
A: Its value is 15 sites.

Q: And the “Number of sites with gingival bleeding” value (gingivitis; Day 0 (baseline), upper jaw (UJ), n = 48)?
A: The value was “one”.

Q: And the “Number of sites with gingival bleeding” value (gingivitis; Day 14, lower jaw (LJ), n = 16)?
A: Its value is “five”.

Q: And the “Number of sites with gingival bleeding” value (gingivitis; Day 14, upper jaw (UJ), n = 48)?
A: Its value is 13 sites.

Q: What about the “Number of sites with gingival bleeding” value (gingivitis; Day 28, lower jaw (LJ), n = 16) of the same compound?
A: Its value is 12 sites.

Q: What about the “Number of sites with gingival bleeding” value (gingivitis; Day 28, upper jaw (UJ), n = 48) of the same compound?
A: Its value is 21 sites.

Q: And the “reduction of established gingivitis” value (gingivitis; delmopinol added in the snack, snack alone 50%, lower jaw, day 0 to day 14)?
A: Its value is 69%.

Q: And the “increase of inflammation after stopping pre-experimental oral hygiene, versus control group” value (gingivitis; paired t-test p=0.05)?
A: Its value is “significantly less”.

Q: What about the “Number of teeth with calculus on the buccal surfaces of the teeth of the upper jaw” value (from here on “Number of teeth with calculus … of the upper jaw”) (calculus formation; Day 0 (baseline), n = 48 measured sites) of the same compound?
A: The value was 0 teeth.

Q: What about the “Number of teeth with calculus … of the upper jaw” value (calculus formation; Day 0 (baseline), n = 48 measured sites, listed as delmopinol) of the same compound?
A: The value was “None”.

Q: And the “Number of teeth with calculus … of the upper jaw” value (calculus formation; Day 14, n = 48 measured sites)?
A: Its value is 6 teeth.

Q: What about the “Number of teeth with calculus … of the upper jaw” value (calculus formation; Day 28, n = 48 measured sites) of the same compound?
A: Its value is 37 teeth.

Q: And the “calculus formation versus control” value (calculus formation; in the presence of dental plaque and with a calculus-promoting soft diet)?
A: Its value is “strongly reduced”.
